In patent US12643867B2, “Compositions and uses thereof” (University of Virginia Patent Foundation, priority 2017, dated 2026):

Columns and labels:
Format in all cases: binding
BRAF = molecular target: T1, BRAF (Homo sapiens, UniProt P15056); experiment: ATP acyl phosphate chemical proteomics in lung cancer cell proteomes
T1 construct: measure selectivity of compounds against native kinases detected in lung cancer proteomes; endogenous in cells; host or cells: A549 and H82 lung cancer cell proteomes
T1 sequence (P15056 whole entry): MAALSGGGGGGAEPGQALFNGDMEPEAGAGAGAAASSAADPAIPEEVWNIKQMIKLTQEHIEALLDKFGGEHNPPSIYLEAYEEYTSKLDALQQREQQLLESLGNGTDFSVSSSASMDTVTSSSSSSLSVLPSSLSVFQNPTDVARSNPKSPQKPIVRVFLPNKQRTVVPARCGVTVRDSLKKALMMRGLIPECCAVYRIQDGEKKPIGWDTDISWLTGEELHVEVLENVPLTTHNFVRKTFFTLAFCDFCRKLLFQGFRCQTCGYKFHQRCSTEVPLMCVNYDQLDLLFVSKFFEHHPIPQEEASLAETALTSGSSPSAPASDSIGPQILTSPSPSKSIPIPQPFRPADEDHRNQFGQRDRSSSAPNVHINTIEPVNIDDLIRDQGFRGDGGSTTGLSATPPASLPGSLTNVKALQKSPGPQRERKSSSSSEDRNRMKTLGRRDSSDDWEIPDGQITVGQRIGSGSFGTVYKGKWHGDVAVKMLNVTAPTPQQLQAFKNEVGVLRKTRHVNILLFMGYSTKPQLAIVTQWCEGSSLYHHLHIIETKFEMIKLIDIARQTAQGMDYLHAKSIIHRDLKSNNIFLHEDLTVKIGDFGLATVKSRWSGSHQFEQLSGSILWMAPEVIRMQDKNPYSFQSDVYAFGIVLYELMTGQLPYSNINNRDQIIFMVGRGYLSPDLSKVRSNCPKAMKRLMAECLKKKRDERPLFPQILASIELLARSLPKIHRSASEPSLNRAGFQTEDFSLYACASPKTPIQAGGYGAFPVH
Method: (§1) LC-MS analysis of SILAC samples using ATP acyl phosphates. Quantitative chemoproteomics was performed as previously described (Franks et al., 2017; McCloud et al., 2018).
(§2) Computational Methods. Data for A549 and H82 cell lines were searched with IP2 and manually validated using the methods previously described (Franks et al., 2017). Data for Desthiobiotin-tagged ATP acyl-phosphate probes and ATP competitive peptides were compared and clustered. Ritanserin and ketanserin inhibition profiles were compared using SILAC ratios and normalized to DMSO.
(§3) Based on previous chemical proteomics (Franks, 2017), it was hypothesized that ritanserin is functioning as a kinase inhibitor to mediate cytotoxicity in the lung cancer cell models. […] For these studies, NSCLC and SCLC cells were cultured in isotopically light and heavy amino acids to enable quantitative chemical proteomics (Chang. 2015) by stable isotope labeling with amino acids in cell culture (SILAC, FIG. 17A). […] After probe labeling, light and heavy proteomes were combined, digested with trypsin protease, and desthiobiotin-modified peptides enriched by avidin affinity chromatography and analyzed by LC-MS/MS to identify and quantify isotopically tagged active-site peptides from native kinases as previously described(Franks, 2017) (FIG. 17A).
To further confirm that ritanserin is a CRAF inhibitor, a targeted parallel reaction monitoring method (PRM) was developed to evaluate compound activity against CRAF and other members of the RAF family (ARAF and BRAF). Targeted PRM was needed because of the low abundance of CRAF compared with ARAF and BRAF). […] Ritanserin activity was also measured against RAF kinases in A549 proteomes using the targeted LC-MS method. […] The data further support previous findings that this RAF member is enriched in SCLC cells (REF).

[1] = molecular target: T2, hDGKa C1 domain cysteines (Homo sapiens, UniProt P23743); experiment: JWB003 labeling competition in vitro
T2 construct: expressed in transfected cells; host or cells: HEK293T
T2 sequence (P23743 whole entry, the tested form may be a part): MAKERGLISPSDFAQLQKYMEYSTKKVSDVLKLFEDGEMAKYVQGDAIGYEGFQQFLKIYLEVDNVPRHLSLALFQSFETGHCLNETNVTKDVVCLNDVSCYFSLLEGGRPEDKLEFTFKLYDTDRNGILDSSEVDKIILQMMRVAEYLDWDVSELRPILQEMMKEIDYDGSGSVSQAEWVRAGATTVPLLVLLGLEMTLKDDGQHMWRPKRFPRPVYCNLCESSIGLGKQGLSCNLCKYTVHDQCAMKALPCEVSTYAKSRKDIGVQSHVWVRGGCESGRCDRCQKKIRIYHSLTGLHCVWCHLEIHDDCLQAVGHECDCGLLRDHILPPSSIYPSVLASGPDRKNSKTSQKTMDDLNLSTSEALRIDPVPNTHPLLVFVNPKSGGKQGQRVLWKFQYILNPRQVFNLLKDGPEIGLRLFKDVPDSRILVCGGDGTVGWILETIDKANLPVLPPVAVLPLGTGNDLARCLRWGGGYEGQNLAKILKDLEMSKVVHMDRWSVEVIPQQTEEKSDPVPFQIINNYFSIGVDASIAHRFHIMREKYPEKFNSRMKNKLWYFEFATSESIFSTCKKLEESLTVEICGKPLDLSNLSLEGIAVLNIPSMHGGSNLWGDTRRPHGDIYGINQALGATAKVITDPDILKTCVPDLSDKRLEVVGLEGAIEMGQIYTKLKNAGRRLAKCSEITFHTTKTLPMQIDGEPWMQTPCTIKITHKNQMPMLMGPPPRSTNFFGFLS
Method: • 1. HEK293T cells were harvested in cold PBS. • a. Cells were transferred to Eppendorf tube. • 2. Cells were lysed via tip sonicator. • 3. Cells were fractionated into membrane and soluble fraction. • a. 100,000×G for 45 minutes at 4 degree. • b. Supernatant was separated from cell pellet. • 4. Dilute proteomes to 1 mg/mL in PBS and aliquot appropriate reaction volume (49 μL for probe only; 48 μL for competition+probe) • 5. Cells were treated with 50× inhibitor. • a. Incubated for 1Hr at 37 degree. • 6. Cells were treated with 50× Probe (JWB003). • a. Incubated for 1Hr at 37 degree. • 7. Add 6 μL of master mix to each alkyne probe-labeled sample. • a. 1 μL of 1.25 mM Rh-N3 • b. 1 μL of fresh 50 mM TCEP • c. 3 μL of 1.7 mM TBTA stock • d. 1 μL of 50 mM CuSO4 • 8. Vortex samples. • 9. Incubate at room temperature for 1 hr • 10. Quench with 17 μL of 4×SDS-PAGE loading buffer+βME and vortex tubes. • 11. Analyze 30 μL samples by SDS-PAGE immediately. [B] Labeling HEK293T Cells to Determine Target Proteins of JWB003 in Live Cells (In Situ) • 1. Complete media was removed from HEK293T cells and replaced with serum free media containing JWB003 at the appropriate final concentration • a. Cells were placed in incubator for appropriate time at 37 degree 5% CO2 • 2. Cells were washed • a. 2× warm PBS • b. 2× cold PBS • c. Harvest cells in cold PBS • 3. Cells were transferred to Eppendorf tube • 4. Cells were lysed via tip sonicator • 5. Cells were fractionated into membrane and soluble fraction • a. 100,000×G for 45 minutes at 4 degrees • b. Supernatant was separated from cell pellet. • 6. Dilute proteomes to 1 mg/mL and aliquot appropriate reaction volume (50 μL) • 7. Add 6 μL of master mix to each alkyne probe-labeled sample. • a. 1 μL of 1.25 mM Rh-N3 • b. 1 μL of fresh 50 mM TCEP • c. 3 μL of 1.7 mM TBTA stock • d. 1 μL of 50 mM CuSO4 • 8. Vortex samples. • 9. Incubate at room temperature for 1 hr. • 10. Quench with 17 μL of 4×SDS-PAGE loading buffer+βME and vortex tubes. • 11. Analyze 30 μL samples by SDS-PAGE immediately. [C] […]

TLK2 = molecular target: T3, TLK2 (Homo sapiens, UniProt Q86UE8); experiment: ATP acyl phosphate chemical proteomics in lung cancer cell proteomes; conditions: 100 μM; A549 and H82 proteomes
T3 construct: measure selectivity of compounds against native kinases detected in lung cancer proteomes; endogenous in cells; host or cells: A549 and H82 lung cancer cell proteomes
T3 sequence (Q86UE8 whole entry): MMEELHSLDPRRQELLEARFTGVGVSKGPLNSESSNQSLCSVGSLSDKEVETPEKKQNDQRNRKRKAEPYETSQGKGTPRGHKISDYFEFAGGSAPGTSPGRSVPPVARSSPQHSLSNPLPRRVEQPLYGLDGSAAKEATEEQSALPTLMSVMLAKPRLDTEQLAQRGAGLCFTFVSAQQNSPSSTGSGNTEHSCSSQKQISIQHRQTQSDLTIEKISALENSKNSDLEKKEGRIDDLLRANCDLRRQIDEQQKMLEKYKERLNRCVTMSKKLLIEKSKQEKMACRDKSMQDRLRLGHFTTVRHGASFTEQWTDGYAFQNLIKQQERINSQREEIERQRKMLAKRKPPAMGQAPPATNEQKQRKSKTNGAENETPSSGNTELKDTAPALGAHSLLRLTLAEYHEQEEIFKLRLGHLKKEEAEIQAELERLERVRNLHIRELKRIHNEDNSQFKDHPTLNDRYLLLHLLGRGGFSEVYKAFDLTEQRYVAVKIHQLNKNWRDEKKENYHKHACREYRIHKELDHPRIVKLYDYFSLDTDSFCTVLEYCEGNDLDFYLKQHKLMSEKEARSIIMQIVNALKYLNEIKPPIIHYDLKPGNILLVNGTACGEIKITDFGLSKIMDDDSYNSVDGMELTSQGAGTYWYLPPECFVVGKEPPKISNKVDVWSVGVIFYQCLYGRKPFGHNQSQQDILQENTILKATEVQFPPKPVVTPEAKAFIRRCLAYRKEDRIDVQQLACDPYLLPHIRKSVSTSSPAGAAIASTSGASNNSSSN
Method: as §1, §2, §3

FER = molecular target: T4, FER (Homo sapiens, UniProt P16591); experiment: as above; conditions: 100 μM; A549 and H82 proteomes
T4 construct: measure selectivity of compounds against native kinases detected in lung cancer proteomes; endogenous in cells; host or cells: A549 and H82 lung cancer cell proteomes
T4 sequence (P16591 whole entry): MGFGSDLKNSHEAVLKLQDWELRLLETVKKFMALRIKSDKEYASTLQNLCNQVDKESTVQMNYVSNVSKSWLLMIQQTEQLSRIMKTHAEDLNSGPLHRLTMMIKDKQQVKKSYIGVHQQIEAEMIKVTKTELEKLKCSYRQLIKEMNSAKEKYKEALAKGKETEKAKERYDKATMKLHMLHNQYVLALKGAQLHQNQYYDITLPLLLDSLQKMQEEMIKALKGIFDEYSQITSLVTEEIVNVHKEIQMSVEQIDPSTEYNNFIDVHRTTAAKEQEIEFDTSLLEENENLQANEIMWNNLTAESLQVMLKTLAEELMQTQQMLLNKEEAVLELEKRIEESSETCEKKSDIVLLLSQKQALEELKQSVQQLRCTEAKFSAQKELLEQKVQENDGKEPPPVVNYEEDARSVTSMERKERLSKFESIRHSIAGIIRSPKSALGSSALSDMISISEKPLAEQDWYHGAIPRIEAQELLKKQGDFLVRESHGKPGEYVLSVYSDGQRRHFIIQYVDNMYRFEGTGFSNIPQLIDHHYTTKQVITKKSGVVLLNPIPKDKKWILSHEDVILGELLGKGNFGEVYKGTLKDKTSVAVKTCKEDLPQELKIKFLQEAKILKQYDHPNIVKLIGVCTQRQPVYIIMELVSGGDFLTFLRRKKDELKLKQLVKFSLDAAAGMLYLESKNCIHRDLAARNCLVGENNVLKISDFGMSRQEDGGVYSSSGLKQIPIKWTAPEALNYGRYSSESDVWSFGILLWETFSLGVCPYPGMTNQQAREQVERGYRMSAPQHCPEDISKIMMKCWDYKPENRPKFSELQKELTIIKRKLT
Method: as §1, §2, §3

Cc1nc2sccn2c(=O)c1CCN1CCC(=C(c2ccc(F)cc2)c2ccc(F)cc2)CC1 [Ritanserin]
inhibition by three-fold change cutoff (BRAF; 100 μM, A549 and H82 proteomes): BRAF inhibition | activity by targeted PRM (BRAF; H82 proteomes): negligible activity | inhibition of JWB003 probe labeling of hDGKa [1]: Probe labeling is inhibited | kinase target by SILAC ratio criterion (TLK2): most potent targets | kinase target by SILAC ratio criterion (FER): most potent targets
